One molecule from patent US6680311B1, “Cryptophycin compounds” (Eli Lilly and Company, priority 1996, dated 2004) can be followed below.

Counter-ions that a name gives are not always drawn.

What all share (assay type): physicochemical
Data set [1] in a line: Solubility in excipient / parenteral vehicles. The settings on record: Propylene Glycol 15 % v/v, Polyethylele Glycol 3000 20 % v/v, volume adjusted 0.05 M acetate buffer.
The nature of data set [2]: Stability in parenteral formulation. Conditions: formulation 6 of Table 4, up to 3 weeks, preliminary.
The nature of data set [3]: Aqueous solubility and stability at pH 4-8. The procedure:
A comparison of stability characteristics between 1 and 12 in aqueous Ph ranging from 4-8 was determined at room temperature for 6 hours.

With `COc1ccc(C[C@H]2NC(=O)/C=C/C[C@@H]([C@H](C)[C@@H](OC(=O)CN)[C@@H](Cl)c3ccccc3)OC(=O)[C@H](CC(C)C)OC(=O)C(C)(C)CNC2=O)cc1Cl` [Compound 12, Cryptophycin 55 Glycinate Hydrochloride Salt], the “Comparative solubility, vehicle 2” value in data set [1] is more than 2000 µg/mL. In data set [2], the “stability in formulation 6” value is “acceptable stability”. Moreover, the “course of aqueous solubility over the pH range studied” value in data set [3] (aqueous pH 4-8, room temperature, 6 hours) is reported as “remained substantially steady”. In addition, the “stability in an aqueous environment” value in data set [3] (physiological pH range, over longer periods of time) was “better stability”.
